Results as given in patent publication US8481537B2, “Caspase inhibitors based of pyridazinone scaffold” (LG Life Sciences Ltd., priority 2006, dated 2013).

Legend:
Caspase-8 = molecular target: T1, Caspase-8 (Homo sapiens, UniProt Q14790); experiment: Caspase inhibitory effect, fluorescent substrate AcDEVD-AFC; format: biochemical; settings: pH 7.5; 2.1 nM caspase-8, 50 μM AcDEVD-AFC, 25° C., pH 7.50; read-out: Caspase-8 Kobs/[I] (converted)
T1 construct: p10 and p20 subunits (Thornberry, N. A. et al, Nature, 1992, 356, 768) were expressed in E. coli; made in house; host or cells: E. coli
Description: Caspase-1 and caspase-8 known as cysteine proteases in the form of α2β2 were expressed, purified, and activated by modifying a method known in Thornberry, N. A. et al, Nature, 1992, 356, 768. Thornberry, N. A. Methods in Enzymology, 1994, 244, 615. Walker, N. P. C. et al. Cell, 1994, 78, 343, and caspase-9 was also purified by a similar method, and the inhibitory activity against them was tested. Briefly describing, p10 and p20 subunits (Thornberry, N. A. et al, Nature, 1992, 356, 768) were expressed in E. coli and purified by nickel column and anionic exchange chromatography to give caspase-1, caspase-8 and caspase-9. The fluorescent substrates AcYVAD-AFC for thus obtained caspase-1, AcDEVD-AFC for caspase-8, and AcLEHD-AFC for caspase-9, were used for determining specific activity of the synthesized inhibitors. The enzyme reaction was carried out at 25° C. with various concentrations of the inhibitors in a buffer solution containing 50 mM HEPES(pH 7.50), 10% (w/v) sucrose, 0.1% (w/v) CHAPS, 100 mM NaCl, 1 mM EDTA, and 10 mM DTT in the presence of 50 μM AcYVAD-AFC for 10 nM caspase-1, 50 μM AcDEVD-AFC for 2.1 nM caspase-8, and 150 μM AcLEHD-AFC for 200 nM caspase-9. The inhibitory constants Ki and Kobs of the inhibitors were determined by measuring the reaction velocity with the time lapse using a fluorescent spectrometer and by obtaining the initial rate constant. Ki was calculated from the Lineweaver Burk Plot, and Kobs from the following Equation 1. Kobs=−ln(1−At/Aoo)/t [Equation 1]
At means cleavage rate (%) at time t, and
Aoo means the maximum cleavage rate (%).
Spectra MAX GeminiXS Fluorescent Spectrometer of Molecular Device Co. was used at the excitation wavelength of 405 nm and the emission wavelength of 505 nm.

[1] = system: Jurkat cell (ATCC TIB-152); experiment: Jurkat cell apoptosis induced by Fas antibody, WST-1 method; format: cell-based; settings: Homo sapiens, amount of alive cells by WST-1
Description: The […] inhibitory activity of the inhibitors was determined by subjecting Jurkat cell (ATCC TIB-152) to apoptosis using Fas antibody (Upstate Biotech 05-201) and by detecting the color change according to the WST-1 method known in Francoeur A. M. and Assalian A. (1996) Biochemica 3, 19-25 to observe the amount of alive Jurkat cells when the cells were treated by the inhibitor. Spectra MAX 340 Spectrometer of Molecular Device Co. was used at the absorbance wavelength of 440 nm.

T1 sequence (Q14790 217-374 limits assumed, species assumed): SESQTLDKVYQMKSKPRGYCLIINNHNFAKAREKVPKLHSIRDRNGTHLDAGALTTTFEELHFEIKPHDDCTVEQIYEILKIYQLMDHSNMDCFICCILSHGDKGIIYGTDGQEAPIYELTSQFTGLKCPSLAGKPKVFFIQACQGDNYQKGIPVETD
T1 sequence (Q14790 385-479 limits assumed, species assumed): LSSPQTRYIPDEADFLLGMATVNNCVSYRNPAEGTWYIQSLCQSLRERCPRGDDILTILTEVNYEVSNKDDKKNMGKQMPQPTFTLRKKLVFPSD

Row | SMILES | kinact/KI (Caspase-8) [M⁻¹ s⁻¹] | IC50 [1] [nM]
1 | CC[C@@H](C(=O)N[C@@H](CC(=O)O)C(=O)COC(=O)c1c(Cl)cccc1Cl)c1ccnn(Cc2ccccc2C(C)(C)C)c1=O (single isomer, unassigned) [Example 23-1] | 20000 | 140
2 | CC[C@H](C(=O)N[C@@H](CC(=O)O)C(=O)COC(=O)c1c(Cl)cccc1Cl)c1ccnn(Cc2ccccc2C(C)(C)C)c1=O (single isomer, unassigned) [Example 23-2] | 933 | 2480
3 | CCC(C(=O)NC(CC(=O)O)C(=O)CF)c1c(C)cnn(-c2ccccc2)c1=O (centres unmarked) [Example 1, 5-Fluoro-3-[2-(5-methyl-3-oxo-2-phenyl-2,3-dihydro-pyridazin-4-yl)-butyrylamino]-4-oxo-pentanoic acid] | 967 | 8000
4 | CCC(C(=O)NC(CC(=O)O)C(=O)CF)c1c(C)cnn(Cc2ccccc2)c1=O (centres unmarked) [Example 2, 3-[2-(2-Benzyl-5-methyl-3-oxo-2,3-dihydro-pyridazin-4-yl)-butyrylamino]-5-f luoro-4-oxo-pentanoic acid] | 7330 | 1480
5 | CCC(C(=O)NC(CC(=O)O)C(=O)CF)c1c(Cl)cnn(Cc2ccccc2)c1=O (centres unmarked) [Example 4, 3-[2-(2-Benzyl-5-chloro-3-oxo-2,3-dihydro-pyridazin-4-yl)-butyrylamino]-5-fl uoro-4-oxo-pentanoic acid] | 6830 | 390
6 | CCC(C(=O)NC(CC(=O)O)C(=O)CF)c1c(OC)cnn(Cc2ccccc2)c1=O (centres unmarked) [Example 5, 3-[2-(2-Benzyl-5-methoxy-3-oxo-2,3-dihydro-pyridazin-4-yl)-butyrylamino]-5-fluoro-4-oxo-pentanoic acid] | 3830 | 2070
7 | CCC(C(=O)NC(CC(=O)O)C(=O)CF)c1ccnn(Cc2ccccc2C(C)(C)C)c1=O (centres unmarked) [Example 6, 3-2-[2-(2-tert-Butyl-benzyl)-3-oxo-2,3-dihydro-pyridazin-4-yl]-butyrylamino-5-fluoro-4-oxo-pentanoic acid] | 63300 | 42
8 | CCC(C(=O)NC(CC(=O)O)C(=O)CF)c1ccnn(Cc2cccc3ccccc23)c1=O (centres unmarked) [Example 11, 5-Fluoro-3-[2-(2-naphthalen-1-ylmethyl-3-oxo-2,3-dihydro-pyridazin-4-yl)-butyrylamino]-4-oxo-pentanoic acid] | 56700 | 170
9 | CCC(C(=O)NC(CC(=O)O)C(=O)CF)c1ccnn(Cc2ccc3ccccc3c2)c1=O (centres unmarked) [Example 12, 5-Fluoro-3-[2-(2-naphthalen-2-ylmethyl-3-oxo-2,3-dihydro-pyridazin-4-yl)-butyrylamino]-4-oxo-pentanoic acid] | 15500 | 290
10 | CCC(C(=O)NC(CC(=O)O)C(=O)CF)c1ccnn(CC2CCCCC2)c1=O (centres unmarked) [Example 16, 3-[2-(2-Cyclohexylmethyl-3-oxo-2,3-dihydro-pyridazin-4-yl)-butyrylamino]-5-fluoro-4-oxo-pentanoic acid] | 12300 | 90
11 | CCC(C(=O)NC(CC(=O)O)C(=O)CF)c1ccnn(Cc2nccc3ccccc23)c1=O (centres unmarked) [Example 17, 5-Fluoro-3-[2-(2-isoquinolin-1-ylmethyl-3-oxo-2,3-dihydro-pyridazin-4-yl)-butyrylamino]-4-oxo-pentanoic acid] | 25000 | 130
12 | CCC(C(=O)NC(CC(=O)O)C(=O)CF)c1ccnn(Cc2ccccc2C(F)(F)F)c1=O (centres unmarked) [Example 21, 5-Fluoro-4-oxo-3-{2-[3-oxo-2-(2-trifluoromethyl-benzyl)-2,3-dihydro-pyridazin-4-yl]-butyrylamino}-pentanoic acid] | 66700 | 43
13 | CCC(C(=O)NC(CC(=O)O)C(=O)CF)c1ccnn(Cc2cccc(C(F)(F)F)c2)c1=O (centres unmarked) [Example 22, 5-Fluoro-4-oxo-3-{2-[3-oxo-2-(3-trifluoromethyl-benzyl)-2,3-dihydro-pyridazin-4-yl]-butyrylamino}-pentanoic acid] | 14300 | 216
14 | CC[C@H](C(=O)N[C@@H](CC(=O)O)C(=O)COc1c(F)ccc(F)c1F)c1ccnn(Cc2ccccc2C(C)(C)C)c1=O [Example 26-2, (S)-3-{(S)-2-[2-(2-tert-Butyl-benzyl)-3-oxo-2,3-dihydro-pyridazin-4-yl]-butyrylamino}-4-oxo-5-(2,3,6-trifluoro-phenoxy)-pentanoic acid] | 7830 | 
15 | CC[C@H](C(=O)N[C@@H](CC(=O)O)C(=O)COc1c(F)cccc1F)c1ccnn(Cc2ccccc2C(C)(C)C)c1=O [Example 27-2, (S)-3-{(S)-2-[2-(2-tert-Butyl-benzyl)-3-oxo-2,3-dihydro-pyridazin-4-yl]-butyrylamino}-5-(2,6-difluoro-phenoxy)-4-oxo-pentanoic acid] | 3170 | 

Now from value to molecule:

Row | kinact/KI (Caspase-8) [M⁻¹ s⁻¹] | IC50 [1] [nM] | SMILES
16 | 21700 | 460 | CCC(C(=O)NC(CC(=O)O)C(=O)CF)c1ccnn(Cc2ccccc2)c1=O (centres unmarked) [Example 3, 3-[2-(2-Benzyl-3-oxo-2,3-dihydro-pyridazin-4-yl)-butyrylamino]-5-fluoro-4-o xo-pentanoic acid]
17 | 23300 | 35 | CCC(C(=O)NC(CC(=O)O)C(=O)CF)c1ccnn(Cc2cccc(C(C)(C)C)c2)c1=O (centres unmarked) [Example 7, 3-2-[2-(3-tert-Butyl-benzyl)-3-oxo-2,3-dihydro-pyridazin-4-yl]-butyrylamino-5-fluoro-4-oxo-pentanoic acid]
18 | 20000 | 820 | CCC(C(=O)NC(CC(=O)O)C(=O)CF)c1ccnn(Cc2ccccc2C)c1=O (centres unmarked) [Example 8, 5-Fluoro-3-2-[2-(2-methyl-benzyl)-3-oxo-2,3-dihydro-pyridazin-4-yl]-butyryl amino-4-oxo-pentanoic acid]
19 | 50000 | 880 | CCC(C(=O)NC(CC(=O)O)C(=O)CF)c1ccnn(Cc2cccc(C)c2)c1=O (centres unmarked) [Example 9, 5-Fluoro-3-2-[2-(3-methyl-benzyl)-3-oxo-2,3-dihydro-pyridazin-4-yl]-butyryl amino-4-oxo-pentanoic acid]
20 | 20000 | 550 | CCC(C(=O)NC(CC(=O)O)C(=O)CF)c1ccnn(Cc2cccc(OC)c2)c1=O (centres unmarked) [Example 10, 5-Fluoro-3-2-[2-(3-methoxy-benzyl)-3-oxo-2,3-dihydro-pyridazin-4-yl]-butyr ylamino-4-oxo-pentanoic acid]
21 | 11500 | 3760 | CCC(C(=O)NC(CC(=O)O)C(=O)CF)c1ccnn(Cc2coc(C)n2)c1=O (centres unmarked) [Example 13, 5-Fluoro-3-2-[2-(2-methyl-oxazol-4-ylmethyl)-3-oxo-2,3-dihydro-pyridazin-4-yl]-butyrylamino-4-oxo-pentanoic acid]
22 | 14000 | 730 | CCC(C(=O)NC(CC(=O)O)C(=O)CF)c1ccnn(Cc2csc(C)n2)c1=O (centres unmarked) [Example 14, 5-Fluoro-3-2-[2-(2-methyl-thiazol-4-ylmethyl)-3-oxo-2,3-dihydro-pyridazin-4-yl]-butyrylamino-4-oxo-pentanoic acid]
23 | 12000 | 800 | CCC(C(=O)NC(CC(=O)O)C(=O)CF)c1ccnn(Cc2c(C)noc2C)c1=O (centres unmarked) [Example 15, 3-2-[2-(3,5-Dimethyl-isoxazol-4-ylmethyl)-3-oxo-2,3-dihydro-pyridazin-4-yl]-butyrylamino-5-fluoro-4-oxo-pentanoic acid]
24 | 73300 | 42 | CCC(C(=O)NC(CC(=O)O)C(=O)CF)c1ccnn(Cc2ccccc2Cl)c1=O (centres unmarked) [Example 18, 3-{2-[2-(2-Chloro-benzyl)-3-oxo-2,3-dihydro-pyridazin-4-yl]-butyrylamino}-5-fluoro-4-oxo-pentanoic acid]
25 | 28300 | 35 | CCC(C(=O)NC(CC(=O)O)C(=O)CF)c1ccnn(Cc2cccc(Cl)c2)c1=O (centres unmarked) [Example 19, 3-{2-[2-(3-Chloro-benzyl)-3-oxo-2,3-dihydro-pyridazin-4-yl]-butyrylamino}-5-fluoro-4-oxo-pentanoic acid]
26 | 18300 | 43 | CCC(C(=O)NC(CC(=O)O)C(=O)CF)c1ccnn(Cc2cccc(Br)c2)c1=O (centres unmarked) [Example 20, 3-{2-[2-(3-Bromo-benzyl)-3-oxo-2,3-dihydro-pyridazin-4-yl]-butyrylamino}-5-fluoro-4-oxo-pentanoic acid]
